Assays:
[1] = tested on: THP-1 cells; test: m6A methylation level of THP-1 cells by LC-MS (Example 19); type: cell-based; conditions: 24 hours
Protocol: 1*10^8 THP-1 cells were seeded in culture dishes, into which 400 nM compound 1, 4 nM and 400 nM compounds 2b, 5a, and 8b, 4 nM and 4 μM nicotinamide, and 5 μM m6A methylase inhibitor UZH2 were added, respectively. The cells were cultured in an incubator containing 5% CO2 at 37° C. for 24 hours. After culture media were discarded, the cells were washed with PBS and centrifuged to discard the supernatant. 400 μL of an RLT cell lysis buffer was added, and the cells were stored at −80° C. A portion of samples were selected, into which 400 μL of 70% ethanol was added and evenly stirred. 700 μL of a sample was transferred to an RNeasy centrifugation column and centrifuged for 15 seconds (8,000 g, 25° C.). Then, 700 μL of an RW1 buffer solution was added and centrifuged for 15 seconds (8,000 g, 25° C.), followed by the addition of 500 μL of an RPE buffer solution and centrifugation for 16 seconds (8,000 g, 25° C.). The above steps were repeated twice, followed by centrifugation for 2 minutes to completely remove the eluent. 30 μL of nuclease-free water was added to a chromatographic column, and the cells were incubated for 5 minutes and then centrifuged for 2 minutes (12,000 g, 25° C.). The steps were repeated 3 times. 2 μL of an RNA sample was selected and dissolved in 98 μL of a 10 mM Tris buffer solution, and the absorbance at 260 nm was measured using a Nanodrop to determine the RNA concentration.
50 μg of total RNA was selected and dissolved in 100 μL of nuclease-free water. Oligo (dT) magnetic beads were resuspended, 50 μL of the magnetic beads were transferred to a 1.5 mL test tube, 500 μL of a binding buffer solution was added, the mixture was allowed to stand, and the supernatant was removed. 100 μL of an RNA sample was added to 200 μL of a magnetic bead suspension for mixing, the mixture was stirred and incubated in a Thermomixer at 25° C. for 5 minutes, the supernatant was discarded, and then 200 μL of a washing buffer solution was added. The steps were repeated 2 times, and then centrifugation was performed for 10 seconds (2,000 g, 25° C.). 50 μL of an elution buffer solution was added and evenly mixed, the mixture was heated to 75° C., the supernatant was transferred to a new 1.5 mL test tube and purified using an RNA Clean & Concentrator kit, and the RNA concentration was determined.
20 μL (approximately 200 ng) of an mRNA sample and 20 μL of a Nuclease P1 digestion premix (including 0.5 μL of 2 unit/μL Nuclease P1, 0.4 μL of 5 M NaCl, 2 μL of 0.1 M ZnCl2, and 17.1 μL of PCR-grade water) were added into each test tube, and the mixture was stirred and incubated in a Thermomixer at 37° C. for 2 hours. 2 μL of a 2 M NH4HCO3 solution and 1 unit of alkaline phosphatase were added, and the mixture was stirred and incubated in a Thermomixer at 37° C. for 2 hours. 1 μL of a 1.2 M HCl neutralization solution was added, and centrifugation was performed for 30 minutes (16,000 g, 4° C.). 20 μL of the supernatant was collected, an m6A methylation fragment was analyzed by LC-MS, and the m6A inhibition rate was calculated.
m6A inhibition rate (%)=(measured ion peak area−blank control)/(positive ion peak area−blank control)*100.

[2] = tested on: skin of hind limb toes of mice; test: Kinase inhibitor-induced mouse models with hand-foot skin reaction (Example 24); type: in vivo, ICR mice; conditions: for expression level of cytokine IL-1β in skin tissues of hind limb toes / thickening of the epidermal layer and the stratum corneum in the skin tissues (pathological staining) / swelling of the toes caused by the modeling drugs: compound 2b 3% ointment topical or nicotinamide 100 mg/kg oral; for thickening of the epidermal layer and the stratum corneum in the skin tissues (pathological staining) / swelling of the toes caused by the modeling drugs: sorafenib or osimertinib model; for swelling of the toes caused by the modeling drugs: once daily 16 days; for degree of swelling of hind limb toes / epidermal layer and stratum corneum in skin tissues of hind limb toes (pathological staining): modeling drug oral for 14 days; for skin appearance of hind limb toes: modeling for 14 days, sorafenib 100 mg/kg or osimertinib 10 mg/kg oral
Source text: After adaptive feeding for 7 days, SPF-grade ICR mice (male, 5-6 weeks old, with a body weight of approximately 35 g) were randomly divided into groups, including a blank control group (6 mice), a sorafenib modeling group (6 mice), an osimertinib modeling group (6 mice), a sorafenib+compound 2b group (6 mice), an osimertinib+compound 2b group (6 mice), a sorafenib+nicotinamide group (6 mice), and an osimertinib+nicotinamide group (6 mice). The groups were respectively administered corresponding modeling drugs by oral gavage (sorafenib at 100 mg/kg and osimertinib at 10 mg/kg) once daily, and the blank control group was administered an equivalent volume of normal saline. After administration with the chemotherapeutic drugs for 2 weeks, the compound ointments (at a compound content of 3%) used in Example 22 were respectively applied topically in the groups or nicotinamide was orally administered (100 mg/kg) once daily continuously for 16 days.
Measurement of the degree of swelling of toes: The degree of swelling of hind limb toes of the mice was measured using a toe swelling tester (KW-7C, Nanjing Calvin Biotechnology Co., Ltd.) before administration with the modeling drugs, after administration with the modeling drugs for 2 weeks, and before sacrifice, respectively. Before measurement, ankle joints of hind paws of the mice were marked at same positions before administration, after administration for 2 weeks, and before sacrifice. During measurement, water was properly located at the same level as the marked positions, and numerical values were recorded after becoming stable.
Pathological staining of skin tissues: Skin tissue samples were selected from hind limb toes of the mice and placed in 4% paraformaldehyde for fixation at room temperature for 4 hours. Then, the tissues were taken out and rinsed with running water for several hours. The samples were subjected to dehydration treatment with 70%, 80%, and 90% ethanol solutions, followed by treatment with a mixed solution of equal amounts of absolute alcohol and xylene for 15 minutes, and then permeabilized twice with a xylene solution for 15 minutes each time until the samples became transparent. The samples were placed in a mixture of half xylene and half paraffin for soaking for 15 minutes, and then, paraffin I and paraffin II were added for wax penetration for one hour, respectively. After embedding with paraffin, the samples were sectioned, baked, dewaxed, and hydrated. Then, the hydrated sections were placed in a hematoxylin solution (ZSGB-BIO, article No. 23041001) for staining for 3 minutes, and a differentiation solution of hydrochloric acid in ethanol was added for differentiation for 15 seconds. After rinsing with water, a Scott bluing solution (Servicebio, article No. 20230801) was added for bluing for 15 seconds. After rinsing with running water, the sections were stained with an eosin solution (Solarbio, article No. 33535) for 3 minutes, rinsed with running water, dehydrated, permeabilized, sealed, and inspected under a microscope.
Immunohistochemical staining: After baking, dewaxing, and hydration, paraffin sections of skin tissues of hind limb toes of the mice were subjected to antigen retrieval using a 0.2 M citric acid buffer solution (containing 1.534 g of citric acid, 3.1 g of sodium citrate, and 100 mL of distilled water, pH 4.7). Endogenous […] was removed using 3% hydrogen peroxide (Shandong Annjet High-Tech Disinfection Technology Co., Ltd., article No. 20290902), and the sections were incubated at room temperature for 10 minutes and then fully rinsed with a PBS buffer solution (containing 8 g of NaCl, 0.2 g of KCl, 1.44 g of Na2HPO4, and 1 M HCl, pH 7.4). The sections were permeabilized with 0.5% Triron-X-100 (AmyJet Scientific, article No. A-CSH436-100 mL), respectively permeabilized with mouse anti-IL-1β and rabbit IL-8 for 10 minutes, and not permeabilized with rabbit anti-IL-6. […]

Row | SMILES | m6A methylation level of mRNA of the cells ([1]; 4 nM and 400 nM) | expression level of cytokine IL-1β in skin tissues of hind limb toes ([2]; osimertinib model) | expression level of cytokine IL-1β in skin tissues of hind limb toes ([2]; sorafenib model) | thickening of the epidermal layer and the stratum corneum in the skin tissues (pathological staining) [2] | swelling of the toes caused by the modeling drugs [2] | degree of swelling of hind limb toes [2] | epidermal layer and stratum corneum in skin tissues of hind limb toes (pathological staining) [2] | skin appearance of hind limb toes [2] | also measured
1 | NC(=O)[C@H]1CCCc2c1[nH]c1ccc(Cl)cc21 [Compound 2b, (S)-6-chloro-2,3,4,9-tetrahydro-1H-carbazole-1-carboxamide] | significantly inhibit | significantly decrease | significantly decrease | effectively alleviate | effectively alleviate |  |  |  | m6A inhibition activity ([1]; 400 nM): comparable to that of the m6A methylase inhibitor UZH2 at a concentration of 5 μM
2 | CN1CC[C@H](C(N)=O)c2[nH]c3ccc(Cl)cc3c21 [Compound 8b, (S)-8-chloro-1-methyl-2,3,4,5-tetrahydropyrido[3,2-b]indole-4-carboxamide] | significantly inhibit |  |  |  |  |  |  |  | 
3 | C=CC(=O)Nc1cc(Nc2nccc(-c3cn(C)c4ccccc34)n2)c(OC)cc1N(C)CCN(C)C [Osimertinib, osimertinib, reference compound] |  |  |  |  |  | significant swelling | significantly thickened | obvious erythema and rhagades | cytokine IL-1β in skin tissues of hind limb toes (immunohistochemistry) ([2]; osimertinib oral for 14 days): significantly increased
4 | NC(=O)C1c2[nH]c3ccc(Cl)cc3c2C2CCC1C2 [Compound 5a, (S)-2-chloro-5,6,7,8,9,10-hexahydro-7,10-methanocyclohepta[b]indole-6-carboxamide] | significantly inhibit |  |  |  |  |  |  |  | 
5 | NC(=O)c1cccnc1 [Nicotinamide, nicotinamide] |  | does not have a significant impact | does not have a significant impact | does not significantly alleviate | not observed that oral administration of the nicotinamide at 100 mg/kg significantly alleviates the swelling |  |  |  | m6A methylation level of mRNA of the cells ([1]; 4 nM and 4 μM): no inhibitory effect
6 | CNC(=O)c1cc(Oc2ccc(NC(=O)Nc3ccc(Cl)c(C(F)(F)F)c3)cc2)ccn1 [Sorafenib, sorafenib, reference compound] |  |  |  |  |  | significant swelling | significantly thickened | obvious erythema and rhagades | cytokine IL-1β in skin tissues of hind limb toes (immunohistochemistry) ([2]; sorafenib oral for 14 days): significantly increased

Source: patent US20260226006A1, “INDOLE COMPOUND, PREPARATION METHOD THEREFOR AND USE THEREOF” (SUZHOU MERNA THERAPEUTICS CO. LTD, priority 2023, published 2026)
